Data on 27 compounds can be found in US8653096B2, “Chemokine receptor antagonists and methods of use thereof” (Millennium Pharmaceuticals, Inc., priority 2001, dated 2014).

Broadly, the IC50 is the concentration that inhibits the measured activity by half.

One assay addresses T1, RANTES/MIP-1α chemokine receptor (CCR1) in THP-1 cell membranes (Homo sapiens, UniProt P32246).
T1 construct: Membranes were prepared from THP-1 cells (ATCC #TIB202); host or cells: THP-1 cells (membrane preparation)
T1 sequence (P32246 1-355): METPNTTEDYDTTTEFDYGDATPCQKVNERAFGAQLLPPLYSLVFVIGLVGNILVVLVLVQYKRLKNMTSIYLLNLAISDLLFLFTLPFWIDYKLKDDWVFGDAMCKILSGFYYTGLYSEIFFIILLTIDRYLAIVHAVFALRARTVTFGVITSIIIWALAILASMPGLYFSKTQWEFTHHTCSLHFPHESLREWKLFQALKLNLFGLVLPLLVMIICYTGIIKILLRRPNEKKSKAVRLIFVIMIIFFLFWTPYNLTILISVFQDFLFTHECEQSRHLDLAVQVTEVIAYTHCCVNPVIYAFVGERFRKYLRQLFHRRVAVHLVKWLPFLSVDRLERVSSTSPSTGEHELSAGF
Description: Receptor binding assay: 125I-RANTES or 125I-MIP-1α binding to THP-1 cell membranes.
Conditions: not given
The protocol:
Membranes were prepared from THP-1 cells (ATCC #TIB202). Cells were harvested by centrifugation, washed twice with PBS (phosphate-buffered saline), and the cell pellets were frozen at −70 to −85° C. The frozen pellet was thawed in ice-cold lysis buffer consisting of 5 mM HEPES (N-2-hydroxyethylpiperazine-N′-2-ethane-sulfonic acid) pH 7.5, 2 mM EDTA (ethylenediaminetetraacetic acid), 5 μg/ml each aprotinin, leupeptin, and chymostatin (protease inhibitors), and 100 μg/ml PMSF (phenyl methane sulfonyl fluoride—also a protease inhibitor), at a concentration of 1 to 5×10^7 cells/ml. This procedure results in cell lysis. The suspension was mixed well to resuspend all of the frozen cell pellet. Nuclei and cell debris were removed by centrifugation of 400×g for 10 minutes at 4° C. The supernatant was transferred to a fresh tube and the membrane fragments were collected by centrifugation at 25,000×g for 30 minutes at 4° C. The supernatant was aspirated and the pellet was resuspended in freezing buffer consisting of 10 mM HEPES pH 7.5, 300 mM sucrose, 1 μg/ml each aprotinin, leupeptin, and chymostatin, and 10 μg/ml PMSF (approximately 0.1 ml per each 10^8 cells). All clumps were resolved using a minihomogenizer, and the total protein concentration was determined using a protein assay kit (Bio-Rad, Hercules, Calif., cat #500-0002). The membrane solution was then aliquoted and frozen at −70 to −85° C. until needed.
Binding Assays utilized the membranes described above. […] The binding reactions were performed in 60 to 100 μl of a binding buffer consisting of 10 mM HEPES pH 7.2, 1 mM CaCl2, 5 mM MgCl2, and 0.5% BSA (bovine serum albumin), for 60 min at room temperature. The binding reactions were terminated by harvesting the membranes by rapid filtration through glass fiber filters (GF/B or GF/C, Packard) which were presoaked in 0.3% polyethyleneimine. The filters were rinsed with approximately 600 μl of binding buffer containing 0.5 M NaCl, dried, and the amount of bound radioactivity was determined by scintillation counting in a Topcount beta-plate counter.
Specific binding is defined as the total binding minus the non-specific binding; non-specific binding is the amount of cpm still detected in the presence of excess unlabeled Rantes or MIP-1α.
`CC(C)NC(=O)Oc1ccc2c(c1)C(=CCCN1CCC(O)(c3ccc(Cl)cc3)C(C)(C)C1)c1cccnc1CO2` (stereo not drawn) [Example 547, Isopropyl-carbamic acid 5-{3-[4-(4-chloro-phenyl)-4-hydroxy-3,3-dimethyl-piperidin-1-yl]-propylidene}-5,11-dihydro-10-oxa-1-aza-dibenzo[a,d]cyclohepten-7-yl ester] returned a 50% inhibitory concentration (IC50) of under 1000 nM.

The assay is the same for the next values; noted with them: inhibitor concentration required for 50% inhibition of specific binding; 125I-RANTES or 125I-MIP-1α as ligand, THP-1 cell membranes; read-out: IC50.
Consider “1-[3-(8-Bromo-5,11-dihydro[1]benzoxepino[2,3-b]pyridin-5-ylidene)propyl]-4-(4-chlorophenyl)piperidin-4-ol [Example 54]”, for which the IC50 was under 1000 nM.

For “1′-[3-(5,11-Dihydro-7-methoxy[1]benzoxepino[2,3-b]pyridin-5-ylidene)propyl]spiro[isobenzofuran-1(3H), 4′-piperidine] [Example 90]”, the IC50 is under 1000 nM.

With “4-(4-Chlorophenyl)-1-[3-(7-diethylaminocarbonyl-5,11-dihydro[1]benzoxepino[2,3-b]pyridin-5-ylidene)propyl]piperidin-4-ol [Example 270]”, the half-maximal inhibitory concentration (IC50) was under 1000 nM.

Turning to `OC1(c2ccc(Cl)cc2)CCN(CCC=C2c3ccccc3CSc3ccccc32)CC1` [Example 8, 4-(4-Chlorophenyl)-1-[3-(6,11-dihydro-dibenz[b,e]thiepin-11-ylidene)propyl]piperidin-4-ol], the half-inhibitory concentration (IC50) was under 1000 nM.

For the compound `CCOCCOc1ccc2c(c1)C(=CCCN1CCC(O)(c3ccc(Cl)cc3)CC1)c1cccnc1CO2` [Example 203], the half-maximal inhibitory concentration (IC50) was under 1000 nM.

`O=C(O)COc1ccc2c(c1)C(=CCCN1CCC(c3ccc(Cl)cc3)CC1)c1cccnc1CO2` [Example 154]: the half-maximal inhibitory concentration (IC50) was under 1000 nM.

In the case of `COc1ccc2c(c1)C(=CCCN1CCC(O)(c3ccc(Cl)cc3)CC1)c1ccccc1CO2` [Example 33, 4-(4-Chlorophenyl)-1-[3-(6,11-dihydro-2-methoxydibenz[b,e]oxepin-11-ylidene)propyl]piperidin-4-ol], the concentration for half-maximal inhibition (IC50) was under 1000 nM.

Take “4-(4-Chlorophenyl)-1-[3-(5,11-dihydro-7-methylaminocarbonyl[1]benzoxepino[2,3-b]pyridin-5-ylidene)propyl]piperidin-4-ol [Example 268]”: the 50% inhibitory concentration (IC50) was under 1000 nM.

On to “1-[3-(7-(1-Carboxyethyl)oxy-5,11-dihydro[1]benzoxepino[2,3-b]pyridin-5-ylidene)propyl]-4-(4-chlorophenyl)piperidin-4-ol [Example 178]”, for which the IC50 is under 1000 nM.

Turning to `COC(=O)C1(C)CN(CCC=C2c3cc(C(C)(C)O)ccc3OCc3ncccc32)CCC1(O)c1ccc(Cl)cc1` (stereo not drawn) [Example 481, 4-(4-Chloro-phenyl)-4-hydroxy-1-{3-[7-(hydroxyl-1-methyl-ethyl)-11H-10-oxa-1-aza-dibenzo[a,d]cyclohepten-5-ylidene}-propyl]-3-methyl-piperidine-3-carboxylic acid methyl ester], the IC50 is under 1000 nM.

On to `CC1(C)CN(CCC=C2c3cc(CC(O)CO)ccc3OCc3ncccc32)CCC1(O)c1ccc(Cl)cc1` (stereo not drawn) [Example 518, 3-(5-{3-[4-(4-Chloro-phenyl)-4-hydroxy-3,3-dimethyl-piperidin-1-yl]-propylidene}-5,11-dihydro-10-oxa-1-aza-dibenzo[a, d]cyclohepten-7-yl)propane-1,2-diol], for which the IC50 is under 1000 nM.

Consider “4-(4-Chlorophenyl)-1-[3-(5,11-dihydro-7-(2,3-dihydroxy)propyl[1]benzoxepino[2,3-b]pyridin-5-ylidene)propyl]piperidin-4-ol [Example 290]”, for which the IC50 is under 1000 nM.

As to `COc1ccc2c(c1)C(=CCCN1CCC(n3c(=O)n(C)c4ccccc43)CC1)c1cccnc1CO2` [Example 68, 1-[3-(5,11-Dihydro-7-methoxy[1]benzoxepino[2,3-b]pyridin-5-ylidene)propyl]-4-(2-keto-3-methyl-1-benzimidazolinyl)piperidine], the IC50 was under 10000 nM.

Regarding `COC1(c2ccc(Cl)cc2)CCN(CCC=C2c3ccccc3COc3ccccc32)CC1` [Example 36, 4-(4-Chlorophenyl)-1-[3-(6,11-dihydrodibenz[b,e]oxepin-11-ylidene)propyl]-4-methoxypiperidine], the half-inhibitory concentration (IC50) is under 1000 nM.

As to `O=C1c2ccccc2C(=CCCN2CCC(O)(c3ccc(Cl)cc3)CC2)c2ccccc2N1Cc1ccccc1` [Example 12, 1-[3-(5-Benzyl-6,11-dihydro-6-oxo-5H-dibenz[b,e]azepin-11-ylidene)propyl]-4-(4-chlorophenyl)-piperidin-4-ol], the half-maximal inhibitory concentration (IC50) is under 1000 nM.

With `CC(C)(O)c1ccc2c(c1)C(=CCCN1CC[C@@H](N3Cc4ccc(Cl)cc4C3)C1)c1cccnc1CO2` [Example 532], the concentration for half-maximal inhibition (IC50) was under 2000 nM.

As to `O=C(O)CN1C(=O)c2ccccc2C(=CCCN2CCC(O)(c3ccc(Cl)cc3)CC2)c2ccccc21` [Example 17, 1-[3-(5-Carboxymethyl-6,11-dihydro-6-oxo-5H-dibenz[b,e]azepin-11-ylidene)propyl]-4-(4-chlorophenyl)-piperidin-4-ol], the 50% inhibitory concentration (IC50) was under 10000 nM.

Turning to `CC(C)(O)c1ccc2c(c1)C(=CCCN1CCC(c3ccc(Cl)cc3)(C(C)(C)O)CC1)c1cccnc1CO2` [Example 463, 2-(5-{3-[4-(4-Chloro-phenyl)-4-(1-hydroxy-1-methyl-ethyl)-piperidin-1-yl]-propylidene}-5,11-dihydro-10-oxa-1-aza-dibenzo[a,d]cyclohepten-7-yl)-propan-2-ol], the 50% inhibitory concentration (IC50) was under 10000 nM.

In the case of `CC(C)(O)c1ccc2c(c1)C(=CCCN1CCC(O)(c3ccc(Cl)cc3)C(C)(CO)C1)c1cccnc1CO2` (stereo not drawn) [Example 482, 4-(4-Chloro-phenyl)-3-hydroxymethyl-1-{3-[7-(hydroxyl-1-methyl-ethyl)-11H-10-oxa-1-aza-dibenzo[a, d]cyclohepten-5-ylidene]-propyl}-3-methyl-piperidine-4-ol], the IC50 is under 1000 nM.

As to “4-(4-Chlorophenyl)-1-[3-(7-dimethylaminocarbonylmethyl-5,11-dihydro[1]benzoxepino[2,3-b]pyridin-5-ylidene)propyl]piperidin-4-ol [Example 122]”, the half-inhibitory concentration (IC50) is under 1000 nM.

Regarding “4-(4-Chlorophenyl)-1-[3-(5,11-dihydro-7-cyclohexyloxycarbonyl-[1]benzoxepino[2,3-b]pyridin-5-ylidene)propyl]piperidine-4-ol [Example 425]”, the IC50 was under 1000 nM.

Consider `CCN(CCC=C1c2cc(C(C)(C)O)ccc2OCc2ncccc21)CCN(CC)c1ccc(Cl)cc1` [Example 543, 2-{5-[3-({2-[(4-Chloro-phenyl)-ethyl-amino]-ethyl}-ethyl-amino)-propylidene]-5,11-dihydro-10-oxa-1-aza-dibenzo[a,d]cyclohepten-7-yl}-propan-2-ol], for which the IC50 was under 10000 nM.

For the compound “4-(4-Chlorophenyl)-1-[3-(5,11-dihydro [1]benzoxepino[2,3-b]pyridin-5-ylidene)propyl]piperidin-4-ol [Example 53]”, the 50% inhibitory concentration (IC50) is under 1000 nM.

Turning to `CN1C(=O)c2ccccc2C(=CCCN2CCC(O)(c3ccc(Cl)cc3)CC2)c2ccccc21` [Example 19, 4-(4-Chlorophenyl)-1-[3-(6,11-dihydro-5-methyl-6-oxo-5H-dibenz[b,e]azepin-11-ylidene)propyl]piperidin-4-ol], the half-maximal inhibitory concentration (IC50) was under 1000 nM.

For the compound `CC(C)(O)c1ccc2c(c1)C(=CCCN1CCC(O)(c3ccc(Cl)cc3)C(O)C1)c1cccnc1CO2` (stereo not drawn) [Example 470, 4-(4-Chloro-phenyl)-1-{3-[7-(1-hydroxy-1-methyl-ethyl)-11H-10-oxa-1-aza-dibenzo[a,d]cyclohepten-5-ylidene]-propyl}-piperidine-3,4-diol], the IC50 was under 1000 nM.

As for “4-(4-Chlorophenyl)-1-[3-(5,11-dihydro-7-ethoxycarbonylmethyloxy[1]benzoxepino[2,3-b]pyridin-5-ylidene)propyl]piperidin-4-ol [Example 48]”, the IC50 was under 1000 nM.
